Measurements published in US12479866B2, “Boron-containing rho kinase inhibitors” (Percipiad, Inc., priority 2019, dated 2025).

Legend:
[1] = Stability in liver microsomes (LC-MS/MS); assay type: in vitro ADME; conditions: Human liver microsomes; for % Remaining of Initial (n = 1): 1 μM
Experimental: Stability in liver microsomes. Experiment was conducted by Absorption Systems. Mixed-gender human liver microsomes (Lot #1210347) were purchased from XenoTech. The reaction mixture, minus NADPH, was prepared (Liver Microsomes 0.5 mg/mL, NADPH (cofactor) 1 mM, potassium phosphate, pH 7.4, 100 mM, MgCl2, 5 mM). The test article was added into the reaction mixture at a final concentration of 1 μM. The control compound, testosterone, was run simultaneously with the test article in a separate reaction. The reaction mixture (without cofactor) was equilibrated in a shaking water bath at 37° C. for 3 minutes. The reaction was initiated by the addition of the cofactor, and the mixture was incubated in a shaking water bath at 37° C. Aliquots (100 μL) were withdrawn at 0, 10, 20, 30, and 60 minutes. Test article and testosterone samples were immediately combined with 400 μL of ice-cold 50/50 acetonitrile (ACN)/H2O containing 0.1% formic acid and internal standard to terminate the reaction. The samples were then mixed and centrifuged to precipitate proteins. […] The peak area response ratio (PARR) to internal standard was compared to the PARR at time 0 to determine the percent remaining at each time point. Half-lives and clearance were calculated using GraphPad software, fitting to a single-phase exponential decay equation.

CAMK4 = CAMK4 (Homo sapiens (Human), UniProt Q16566); assay: Kinase Selectivity Profiling General Panel (ADP-Glo); assay type: biochemical; conditions: 1 μM compound, read-out: Percent enzyme activity inhibition, CAMK4
Experimental: (§1) After this incubation, 5 μl of ADP-Glo™ reagent was added to 5 μl reaction and incubated for 40 minutes. Then, 10 μl of Kinase Detection Reagent added to all assay wells in the assay plate and incubated at room temperature for 30 minutes. […]

ROCK1 = ROCK1 (Homo sapiens (Human), UniProt Q13464); assay: as above; assay type: biochemical; conditions: 1 μM compound, read-out: Percent enzyme activity inhibition, ROCK1
Experimental: as §1

CK1a1 = CK1a1 (Homo sapiens (Human), UniProt P48729); assay: as above; assay type: biochemical; conditions: 1 μM compound, read-out: Percent enzyme activity inhibition, CK1a1
Experimental: as §1

CK2a1 = CK2a1 (Homo sapiens (Human), UniProt P68400); assay: as above; assay type: biochemical; conditions: 1 μM compound, read-out: Percent enzyme activity inhibition, CK2a1
Experimental: as §1

AMPKA1/B1/G2 = AMPKA1/B1/G2 (Homo sapiens (Human), UniProt Q13131); assay: as above; assay type: biochemical; conditions: 1 μM compound, read-out: Percent enzyme activity inhibition, AMPKA1/B1/G2
Experimental: as §1

PAK1/CDC42 = PAK1/CDC42 (Homo sapiens (Human), UniProt Q13153); assay: as above; assay type: biochemical; conditions: 1 μM compound, read-out: Percent enzyme activity inhibition, PAK1/CDC42
Experimental: as §1

CK1g1 = CK1g1 (Homo sapiens (Human), UniProt Q9HCP0); assay: as above; assay type: biochemical; conditions: 1 μM compound, read-out: Percent enzyme activity inhibition, CK1g1
Experimental: as §1

FGFR1 = FGFR1 (Homo sapiens (Human), UniProt P11362); assay: as above; assay type: biochemical; conditions: 1 μM compound, read-out: Percent enzyme activity inhibition, FGFR1
Experimental: as §1

[2] = Stability in buffer, plasma, and blood (LC-MS/MS); assay type: in vitro ADME, human; design: half-life: dose or concentration left out as unconfirmed
Experimental: Stability in buffer, plasma, and blood. Study was conducted by Absorption Systems. Studies were carried out in pH 7.4 phosphate buffer, mixed-gender human plasma (Lot #HMN330460), and mixed-gender human whole blood (Lot #HMN 381096). […] The plasma and blood were obtained from BioIVT and collected on sodium heparin. They were adjusted to pH 7.4 prior to initiating the experiments. […] Aliquots of the DMSO solution were dosed into 1 mL of matrix, which had been pre-warmed to 37° C., at a final concentration of […]. The vials were kept in a benchtop Thermomixer® for the duration of the experiment. Aliquots (100 μL) were taken at each time point (0, 15, 30, 60, and 120 minutes) and added to 96-well plates, which had been pre-filled with 300 μL of acetonitrile (ACN). Samples were stored at 4° C. until the end of the experiment. After the final time point was sampled, the plate was mixed and then centrifuged at 3,000 rpm for 10 minutes. Aliquots of the supernatant were removed, diluted 1:1 into distilled water, and analyzed by LC-MS/MS (Table 21). The peak area response ratio to internal standard (PARR) was compared to the PARR at time 0 to determine the percent of test article remaining at each time point. Half-lives were calculated using GraphPad software, fitting to a single-phase exponential decay equation.

AKT1 = AKT1 (Homo sapiens (Human), UniProt P31749); assay: AGC Kinase Selectivity Profiling (ADP-Glo); assay type: biochemical; conditions: 1 μM compound; AGC Panel; read-out: Percent enzyme activity inhibition, AKT1
Source text: ROCK1 (also called ROCK I, ROKβ, Rho-kinase β, or p160ROCK) and ROCK2 ((also known as ROCK II, ROKα, or Rho kinase) belong to AGC family of serine/threonine kinases. The group of AGC kinases consists of 63 evolutionarily related serine/threonine protein kinases comprising PDK1, PKB/Akt, SGK, PKC, PRK/PKN, MSK, RSK, S6K, PKA, PKG, DMPK, MRCK, ROCK, NDR, LATS, CRIK, MAST, GRK, Sgk494, and YANK, while two other families, Aurora and PLK, are the most closely related to the group (Leroux et al., AGC kinases, mechanisms of regulation and innovative drug development, Semin Cancer Biol. 2018 February; 48:1-17).

AMPKA1/B1/G2, sequence (Q13131 whole entry): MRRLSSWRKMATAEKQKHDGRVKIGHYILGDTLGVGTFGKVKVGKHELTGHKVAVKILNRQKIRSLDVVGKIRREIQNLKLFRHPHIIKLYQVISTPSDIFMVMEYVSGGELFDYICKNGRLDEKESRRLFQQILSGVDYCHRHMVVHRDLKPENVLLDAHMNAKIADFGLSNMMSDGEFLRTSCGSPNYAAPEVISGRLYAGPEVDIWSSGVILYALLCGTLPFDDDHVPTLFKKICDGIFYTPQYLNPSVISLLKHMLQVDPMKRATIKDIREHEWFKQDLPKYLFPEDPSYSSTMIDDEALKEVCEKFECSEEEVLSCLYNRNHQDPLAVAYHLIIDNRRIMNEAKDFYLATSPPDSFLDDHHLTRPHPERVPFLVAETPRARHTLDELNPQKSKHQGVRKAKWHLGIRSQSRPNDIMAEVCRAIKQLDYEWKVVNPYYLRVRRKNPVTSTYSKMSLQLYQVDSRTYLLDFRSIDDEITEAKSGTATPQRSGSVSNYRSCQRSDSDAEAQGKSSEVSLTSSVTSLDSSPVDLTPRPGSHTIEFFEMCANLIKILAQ
AMPKA1/B1/G2, sequence (Q9Y478 whole entry partner): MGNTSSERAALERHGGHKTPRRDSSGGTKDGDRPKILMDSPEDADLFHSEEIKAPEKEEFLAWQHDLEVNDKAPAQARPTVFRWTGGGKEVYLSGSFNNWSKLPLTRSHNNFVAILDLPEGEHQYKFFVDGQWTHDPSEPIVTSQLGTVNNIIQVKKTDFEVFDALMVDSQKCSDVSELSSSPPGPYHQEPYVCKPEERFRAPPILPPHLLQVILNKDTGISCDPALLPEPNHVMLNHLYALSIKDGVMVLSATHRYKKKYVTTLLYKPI
AMPKA1/B1/G2, sequence (Q9UGJ0 whole entry partner): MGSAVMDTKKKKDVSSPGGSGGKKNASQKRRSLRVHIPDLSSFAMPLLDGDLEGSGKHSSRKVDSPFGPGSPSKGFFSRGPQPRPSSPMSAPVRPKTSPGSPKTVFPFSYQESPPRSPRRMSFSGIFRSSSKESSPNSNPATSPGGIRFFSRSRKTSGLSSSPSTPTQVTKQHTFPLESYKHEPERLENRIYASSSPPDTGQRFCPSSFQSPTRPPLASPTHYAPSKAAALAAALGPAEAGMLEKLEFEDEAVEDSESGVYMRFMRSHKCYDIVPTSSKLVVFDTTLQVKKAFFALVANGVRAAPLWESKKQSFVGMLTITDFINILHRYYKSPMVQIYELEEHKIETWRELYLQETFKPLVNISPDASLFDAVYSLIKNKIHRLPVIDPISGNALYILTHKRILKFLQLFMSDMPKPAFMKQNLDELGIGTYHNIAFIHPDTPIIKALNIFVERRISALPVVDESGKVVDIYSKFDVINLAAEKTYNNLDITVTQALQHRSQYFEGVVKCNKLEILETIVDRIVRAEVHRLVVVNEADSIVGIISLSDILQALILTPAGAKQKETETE
CAMK4, sequence (Q16566 whole entry): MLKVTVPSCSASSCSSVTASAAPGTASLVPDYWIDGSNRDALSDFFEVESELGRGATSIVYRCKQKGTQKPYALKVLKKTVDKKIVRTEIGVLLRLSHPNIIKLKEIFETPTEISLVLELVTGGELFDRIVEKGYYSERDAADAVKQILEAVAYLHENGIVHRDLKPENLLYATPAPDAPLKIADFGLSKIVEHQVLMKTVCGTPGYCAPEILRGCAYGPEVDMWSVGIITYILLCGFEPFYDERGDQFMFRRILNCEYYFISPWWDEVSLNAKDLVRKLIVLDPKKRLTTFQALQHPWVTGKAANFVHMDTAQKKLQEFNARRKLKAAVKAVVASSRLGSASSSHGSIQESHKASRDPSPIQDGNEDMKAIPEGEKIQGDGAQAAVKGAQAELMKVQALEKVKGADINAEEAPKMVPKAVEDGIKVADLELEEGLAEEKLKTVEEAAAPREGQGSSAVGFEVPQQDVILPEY
CK1a1, sequence (P48729 whole entry): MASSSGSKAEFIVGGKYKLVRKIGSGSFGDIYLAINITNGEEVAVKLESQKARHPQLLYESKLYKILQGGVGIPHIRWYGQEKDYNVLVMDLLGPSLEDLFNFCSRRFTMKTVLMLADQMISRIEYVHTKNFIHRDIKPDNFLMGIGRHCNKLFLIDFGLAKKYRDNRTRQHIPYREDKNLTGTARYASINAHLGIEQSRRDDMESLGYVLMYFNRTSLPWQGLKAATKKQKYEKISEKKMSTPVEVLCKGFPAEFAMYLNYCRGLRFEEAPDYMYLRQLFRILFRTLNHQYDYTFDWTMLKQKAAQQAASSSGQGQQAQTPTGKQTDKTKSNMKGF
AKT1, sequence (P31749 whole entry): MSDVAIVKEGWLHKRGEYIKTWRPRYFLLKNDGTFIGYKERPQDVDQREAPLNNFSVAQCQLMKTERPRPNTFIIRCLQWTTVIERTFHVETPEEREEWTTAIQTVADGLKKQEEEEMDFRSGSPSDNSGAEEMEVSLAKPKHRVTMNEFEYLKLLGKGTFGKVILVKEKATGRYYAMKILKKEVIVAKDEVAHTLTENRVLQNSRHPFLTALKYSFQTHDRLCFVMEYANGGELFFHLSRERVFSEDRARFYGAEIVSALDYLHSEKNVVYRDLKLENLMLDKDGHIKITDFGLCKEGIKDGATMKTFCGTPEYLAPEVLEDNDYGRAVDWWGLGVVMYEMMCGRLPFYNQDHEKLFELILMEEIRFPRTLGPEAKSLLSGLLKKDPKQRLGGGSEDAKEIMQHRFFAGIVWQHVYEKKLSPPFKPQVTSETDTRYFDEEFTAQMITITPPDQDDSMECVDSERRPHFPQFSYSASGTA
ROCK1, sequence (Q13464 whole entry): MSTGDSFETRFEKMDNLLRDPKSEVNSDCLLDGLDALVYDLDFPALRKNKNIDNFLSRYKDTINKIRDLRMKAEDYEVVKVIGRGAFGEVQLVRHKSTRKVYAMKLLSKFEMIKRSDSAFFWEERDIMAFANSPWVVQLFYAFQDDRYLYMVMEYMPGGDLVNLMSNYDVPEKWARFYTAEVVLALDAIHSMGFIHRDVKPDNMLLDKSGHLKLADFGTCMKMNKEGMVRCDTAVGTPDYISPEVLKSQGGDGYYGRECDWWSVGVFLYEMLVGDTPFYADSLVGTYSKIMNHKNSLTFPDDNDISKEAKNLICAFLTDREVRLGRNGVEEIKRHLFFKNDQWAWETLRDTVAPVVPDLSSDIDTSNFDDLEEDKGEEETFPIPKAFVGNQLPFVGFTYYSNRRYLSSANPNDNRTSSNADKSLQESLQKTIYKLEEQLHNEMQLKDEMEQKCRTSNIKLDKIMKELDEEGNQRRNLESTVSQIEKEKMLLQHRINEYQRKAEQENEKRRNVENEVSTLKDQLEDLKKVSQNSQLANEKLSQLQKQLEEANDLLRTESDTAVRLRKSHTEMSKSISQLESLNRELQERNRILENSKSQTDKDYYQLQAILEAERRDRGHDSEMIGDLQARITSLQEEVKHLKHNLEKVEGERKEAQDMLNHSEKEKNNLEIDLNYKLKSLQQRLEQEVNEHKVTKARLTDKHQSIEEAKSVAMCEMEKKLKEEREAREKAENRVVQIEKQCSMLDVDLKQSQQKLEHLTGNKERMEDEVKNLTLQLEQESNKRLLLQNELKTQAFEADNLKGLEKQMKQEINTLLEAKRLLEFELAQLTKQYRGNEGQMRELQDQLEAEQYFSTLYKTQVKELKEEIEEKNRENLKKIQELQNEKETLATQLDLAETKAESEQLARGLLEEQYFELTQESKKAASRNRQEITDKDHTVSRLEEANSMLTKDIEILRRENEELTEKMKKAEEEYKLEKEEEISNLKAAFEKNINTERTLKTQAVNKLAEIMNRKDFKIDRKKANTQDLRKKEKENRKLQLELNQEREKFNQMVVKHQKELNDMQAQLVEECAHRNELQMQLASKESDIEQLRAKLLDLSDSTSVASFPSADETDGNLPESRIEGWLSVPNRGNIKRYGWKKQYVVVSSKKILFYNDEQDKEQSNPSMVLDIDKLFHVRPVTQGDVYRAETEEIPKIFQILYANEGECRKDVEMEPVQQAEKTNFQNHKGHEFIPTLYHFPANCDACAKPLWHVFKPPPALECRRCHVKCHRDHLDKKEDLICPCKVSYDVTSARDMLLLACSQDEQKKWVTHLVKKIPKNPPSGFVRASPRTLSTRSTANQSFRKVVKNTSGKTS
PAK1/CDC42, sequence (Q13153 whole entry): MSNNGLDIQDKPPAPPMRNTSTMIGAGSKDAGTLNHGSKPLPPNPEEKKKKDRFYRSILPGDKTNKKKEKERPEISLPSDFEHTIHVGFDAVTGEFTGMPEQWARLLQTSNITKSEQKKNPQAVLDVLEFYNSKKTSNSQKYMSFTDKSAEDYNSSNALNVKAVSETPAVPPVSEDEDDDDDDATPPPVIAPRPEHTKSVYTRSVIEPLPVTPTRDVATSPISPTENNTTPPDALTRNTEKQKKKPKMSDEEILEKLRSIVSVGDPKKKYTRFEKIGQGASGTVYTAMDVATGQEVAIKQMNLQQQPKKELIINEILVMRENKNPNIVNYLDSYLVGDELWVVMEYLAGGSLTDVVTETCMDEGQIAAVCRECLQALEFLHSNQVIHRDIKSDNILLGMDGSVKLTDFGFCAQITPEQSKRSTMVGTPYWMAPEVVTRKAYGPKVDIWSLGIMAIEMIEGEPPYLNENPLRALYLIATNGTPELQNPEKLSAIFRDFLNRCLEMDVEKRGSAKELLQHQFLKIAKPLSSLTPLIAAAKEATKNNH
CK1g1, sequence (Q9HCP0 whole entry): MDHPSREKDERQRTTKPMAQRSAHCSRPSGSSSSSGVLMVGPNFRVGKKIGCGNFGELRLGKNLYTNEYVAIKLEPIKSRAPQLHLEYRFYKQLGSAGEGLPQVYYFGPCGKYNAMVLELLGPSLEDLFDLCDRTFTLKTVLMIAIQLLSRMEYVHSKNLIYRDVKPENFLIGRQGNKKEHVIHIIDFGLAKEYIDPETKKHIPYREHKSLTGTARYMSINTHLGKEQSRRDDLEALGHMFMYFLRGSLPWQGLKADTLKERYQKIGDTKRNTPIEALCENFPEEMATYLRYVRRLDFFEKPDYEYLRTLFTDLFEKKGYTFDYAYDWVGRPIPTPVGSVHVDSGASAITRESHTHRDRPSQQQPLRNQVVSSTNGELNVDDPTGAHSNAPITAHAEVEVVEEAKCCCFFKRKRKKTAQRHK

For `Cl.Cl.NCC(C(=O)Nc1ccc2cnccc2c1)c1ccc(B(O)O)cc1` (stereo not shown) [Compound 10•2HCl], the “% Remaining of Initial (n = 1)” value ([1]; 0 min) was 100%, the “% Remaining of Initial (n = 1)” value ([1]; 10 min) was 98.0% and the “% Remaining of Initial (n = 1)” value ([1]; 20 min) was 91.5%. The “% Remaining of Initial (n = 1)” value ([1]; 30 min) was 89.6%, the “% Remaining of Initial (n = 1)” value ([1]; 60 min) was 80.8% and the half-life at 1 μM ([1]; both sexes, pH 7.4) was greater than 1 h. It also gave a microsomal CLint at 1 μM ([1]; both sexes, pH 7.4) of less than 23.1 µL/min/mg, an inhibition at 1 µM (CAMK4) of 7% and an inhibition at 1 µM (ROCK1) of 98%. The inhibition at 1 µM (CK1a1) was 0%, the inhibition at 1 µM (CK2a1) was 3% and the inhibition at 1 µM (AMPKA1/B1/G2) was 58%. For the same compound, the inhibition at 1 µM (PAK1/CDC42) was 0%, the inhibition at 1 µM (CK1g1) was 0% and the inhibition at 1 µM (FGFR1) was 35%. The “Percent Remaining” value ([2]; Buffer pH 7.4, 37° C., 0 min) was 100%, the “Percent Remaining” value ([2]; Buffer pH 7.4, 37° C., 15 min) was 102% and the “Percent Remaining” value ([2]; Buffer pH 7.4, 37° C., 30 min) was 97%. The “Percent Remaining” value ([2]; Buffer pH 7.4, 37° C., 60 min) was 101%, the “Percent Remaining” value ([2]; Buffer pH 7.4, 37° C., 120 min) was 93% and the half-life ([2]; both sexes, pH 7.4, human Plasma, 37° C.) was greater than 2 h. The half-life ([2]; both sexes, pH 7.4, human whole Blood, 37° C.) was greater than 2 h, the “Percent Remaining” value ([2]; human Plasma, 37° C., 0 min) was 100% and the “Percent Remaining” value ([2]; human Plasma, 37° C., 15 min) was 82%. The “Percent Remaining” value ([2]; human Plasma, 37° C., 30 min) was 106%, the “Percent Remaining” value ([2]; human Plasma, 37° C., 60 min) was 83% and the “Percent Remaining” value ([2]; human Plasma, 37° C., 120 min) was 91%. The “Percent Remaining” value ([2]; human whole Blood, 37° C., 0 min) was 100%, the “Percent Remaining” value ([2]; human whole Blood, 37° C., 15 min) was 92% and the “Percent Remaining” value ([2]; human whole Blood, 37° C., 30 min) was 87%. For the same compound, the “Percent Remaining” value ([2]; human whole Blood, 37° C., 60 min) was 100%, the “Percent Remaining” value ([2]; human whole Blood, 37° C., 120 min) was 115% and the half-life ([2]; pH 7.4 phosphate buffer, Buffer pH 7.4, 37° C.) was greater than 2 h. It also gave an inhibition at 1 µM (AKT1) of 52%.
